These results are taken from ChEMBL document CHEMBL3046090, “Mechanism of the Phytotoxic Action of Herbicidal N-Isobutyl-N-(4-substituted benzyl)-4-halo-2-pentenamides” (J Pestic Sci, 2002).

Data set [1] has as its system Gossypium hirsutum. The data set is described as follows: Phytotoxicity against Gossypium hirsutum (cotton) seedlings assessed as light darkening measured under dark conditions at 100 uM. Format: functional, organism-based.
The subject of data set [2] is Lathyrus oleraceus. Put plainly: Inhibition of Succinate-cytochrome c reductase in Pisum sativum (pea) mitochondrial respiratory-chain electron-transport system at 100 uM.
The subject of data set [3] is Gossypium hirsutum. The data set is described as follows: Phytotoxicity against Gossypium hirsutum (cotton) seedlings assessed as cotyledons are damaged with green spots measured under light conditions at 100 uM. Format: functional.
Data set [4] relates to Gossypium hirsutum. The data set is described as follows: Phytotoxicity against Gossypium hirsutum (cotton) seedlings assessed as damage measured under dark conditions at 100 uM. Format: functional, organism-based.
Data set [5] has as its system Gossypium hirsutum. The data set is described as follows: Phytotoxicity against Gossypium hirsutum (cotton) seedlings assessed as cotyledons are killed and stems are partially survived measured under light conditions at 100 uM. Format: functional, organism-based.
In data set [6] the test system is Gossypium hirsutum. Put plainly: Phytotoxicity against Gossypium hirsutum (cotton) seedlings assessed as heavily dark-browning with wrinkling measured under dark conditions at 100 uM. Format: functional, organism-based.
Data set [7] has as its system Gossypium hirsutum. The data set is described as follows: Phytotoxicity against Gossypium hirsutum (cotton) seedlings assessed as cotyledons are killed but stems are not wilted measured under light conditions at 100 uM. Format: functional, organism-based.
Data set [8] deals with Lathyrus oleraceus. Put plainly: Inhibition of Succinate-cytochrome c reductase in Pisum sativum (pea) mitochondrial respiratory-chain electron-transport system at 0.1 uM.
The subject of data set [9] is Gossypium hirsutum. Put plainly: Phytotoxicity against Gossypium hirsutum (cotton) seedlings assessed as moderate darkening measured under dark conditions at 100 uM. Format: functional, organism-based.
Data set [10] can be described thus: Dissociation constant, pKa of the compound. The data set is classed as physicochemical.
For data set [11], the system named is Gossypium hirsutum. The data set is described as follows: Phytotoxicity against Gossypium hirsutum (cotton) seedlings assessed as complete killing measured under light conditions at 100 uM. The data set is classed as functional, organism-based.

Activity calls are given as the source filed them. No cut-off for these calls is given here.

In the case of `CC(Cl)/C=C/C(=O)N(Cc1ccc(S(C)(=O)=O)cc1)CC(C)C` (stereo not given), the outcome in [1] was Active. The inhibition (commonly how much of the control response was suppressed) in [2] amounted to 5.8%. The Activity in [3] is listed as 50%.
`CC(C)Oc1cc(-n2nc(C(C)(C)C)oc2=O)c(Cl)cc1Cl`: in data set [4], the outcome was inactive. Further, the outcome in data set [5] was Active.
For the compound `CC(Br)/C=C/C(=O)N(Cc1ccc(Cl)cc1)CC(C)C` (stereo not given), the result in data set [6] and in [7] was Active. Moreover, in data set [2], the inhibition turned out to be 0%.
Regarding `O=[N+]([O-])c1ccc(Oc2ccc(Cl)cc2Cl)cc1` [NITROFEN], the outcome in [4] was inactive. Besides, the Activity in data set [3] was determined as 10%.
In data set [8], `CCCCCC[C@H]1C(=O)O[C@H](C)[C@H](NC(=O)c2cccc(NC=O)c2O)C(=O)O[C@@H](C)[C@@H]1OC(=O)CC(C)C` gave an inhibition of 100%.
For the compound `CC(Cl)/C=C/C(=O)N(Cc1ccc(Cl)cc1)CC(C)C` (stereo not given), the inhibition in data set [2] came out at 0%. Moreover, the outcome in data set [9] and in data set [7] was Active.
On to `O=C1C2=C(CCCC2)C(=O)N1c1ccc(Cl)cc1` [CHLOROPHTHALIUM], for which, in data set [10], the pKa (usually the negative logarithm of the acid dissociation constant) is 6.43.
As to `COC(=O)CSc1cc(/N=c2\sc(=O)n3n2CCCC3)c(F)cc1Cl`, the result in data set [4] was inactive. For the same compound, in [11], the outcome was Active.
Regarding `CC(Cl)/C=C/C(=O)N(Cc1ccc(C(F)(F)F)cc1)CC(C)C` (stereo not given), in data set [2], the inhibition worked out at 1.2%. The outcome in data set [9] was Active. Further, the Activity in data set [3] stood at 10%.
With `CC(Cl)/C=C/C(=O)N(Cc1ccc(C#N)cc1)CC(C)C` (stereo not given), the result in data set [6] and in data set [11] was Active. This compound gave a pKa in [10] of 4.82. This compound yielded an inhibition in [2] of 4.6%.
The compound `CCOc1cc(Oc2ccc(C(F)(F)F)cc2Cl)ccc1[N+](=O)[O-]` [OXYFLUORFEN] had a pKa in [10] of 7.63.
